Assay results: ChEMBL document CHEMBL3612018, “Discovery of a Potent and Selective ROMK Inhibitor with Pharmacokinetic Properties Suitable for Preclinical Evaluation” (ACS Med Chem Lett, 2015)

Legend:
in vivo [1] = conditions: Sprague-Dawley, rat, po, 2 mg/kg
Rattus norvegicus [2] = species on record: Rattus norvegicus; conditions: in vivo, iv, 0.5 mg/kg
Rattus norvegicus [3] = species on record: Rattus norvegicus; conditions: in vivo, po, 2 mg/kg
in vivo [4] = conditions: Sprague-Dawley, rat
Rattus norvegicus [5] = species on record: Rattus norvegicus; conditions: in vivo, iv, 1 mg/kg
in vivo [6] = conditions: Sprague-Dawley, rat; remark: listed apart in the source

Compound | bioavailability (in vivo [1]) [%] | clearance (Rattus norvegicus [2]) [mL/min/kg] | AUC/dose (Rattus norvegicus [3]) [µM·kg·h/mg] | half-life (in vivo [4]) [h] | clearance (Rattus norvegicus [5]) [mL/min/kg] | half-life (in vivo [6]) [h]
COc1cc(C(O)CN2CCN(CCc3ccc4c(c3C)COC4=O)CC2)ncc1C#N (stereo not drawn) | 78 | 40 | 0.74 | 1.5 | – | –
COc1cc(CCN2CCN(CC(O)c3ccc4c(c3C)COC4=O)CC2)ccc1C#N (stereo not drawn) | 39 | 33 | 0.46 | 0.83 | – | –
O=C1OCc2cc(CCN3CCN(C(=O)Cc4ccc(-n5cnnn5)cc4)CC3)ccc21 | – | – | 0.34 | – | 40 | –
COc1cc(C(O)CN2CCN(CCc3ccc4c(c3C)COC4=O)CC2)ccc1C#N (stereo not drawn) | 37 | 40 | 0.35 | 1.3 | – | –
Cc1nc(C(O)CN2CCN(C[C@H](O)c3ccc4c(c3C)COC4=O)CC2)ccc1C#N (stereo in doubt; 35) | 81 | – | 1.3 | – | 25 | 1.4
